The values that follow come from patent US20230321044A1, “TREATMENT OR PREVENTION METHOD FOR CHRONIC HEART FAILURE” (Japan Tobacco Inc., priority 2020, published 2023).

“Also recorded” adds a separate entry of the source.

Data set [1] deals with hypertensive heart failure rats. Kind of data set: Assessment of cardiac function in rats with hypertensive heart failure (Test Example 2). In kind it is in vivo, rat. On the procedure: Male DIS/Eis (Dahl-Iwai S) rats (Dahl rats) (7-week old, Japan SLC, Inc.) were fed a high-salt diet (MF 8% sodium chloride-adjusted feed, Oriental Yeast Co., ltd.) to prepare hypertensive heart failure rats. Normal controls were fed a normal diet (CRF-1 solid, Oriental Yeast Co., ltd.). Three weeks later, after confirmation of the development of pathological condition (hypertension or cardiomegaly), vehicle (0.5% methylcellulose solution) or Compound 1 (3 mg/kg group or Ascending Dose group) was orally administered to the hypertensive heart failure rat group once daily, and the vehicle was orally administered once daily to the normal control group. […] After five weeks of administration, an ultrasonograph (Aplio 300, Toshiba Medical Systems Corporation) was used to measure the left ventricular ejection fraction, and a non-invasive automated blood pressure measuring device (BP-98A, Softlon Co.,Ltd.) was used to measure the systolic blood pressure. After six weeks of administration, ADVantage P-V catheter (Model FTH-1918B-E318, Transonic Scisense Inc.) was inserted into the left ventricle from the apex to measure the left ventricular end-diastolic pressure. […] For statistical analysis, Student test or Aspin-Welch t test was conducted between the vehicle-administered normal control group and the vehicle-administered group of hypertensive heart failure rats. Dunnett’s multiple test was conducted for the Compound 1 group to the vehicle group of hypertensive heart failure rats. The significance level was two-sided 5%. Form the results, it was confirmed that the hypertensive heart failure rats developed HFpEF because the EDPVRβ and left ventricular end-diastolic pressure were increased whereas the left ventricular ejection fraction was not decreased, compared with the normal control group. […] Compound 1 also had no effect on the urine volume in the hypertensive heart failure rats.

In data set [2] the test system is post-myocardial infarction heart failure rats. Kind of data set: Assessment of cardiac function in rats with post-myocardial infarction heart failure (Test Example 1). In kind it is in vivo, rat. On the procedure: Male SD rats (8-week old, Japan SLC, Inc.) were anesthetized with pentobarbital, then, under controlled mechanical ventilation, underwent thoracotomy and permanent ligation of the left anterior descending coronary artery to prepare rats with post-myocardial infarction heart failure. A sham-operated group was prepared by undergoing only thoracotomy in the same way to expose the heart. Two weeks later, vehicle (0.5% methylcellulose solution) or Compound 1 (3 mg/kg group or Ascending Dose group) was orally administered once daily to the group of post-myocardial infarction heart failure rat, and the vehicle was orally administered once daily to the sham-operated group. The dose for the Ascending Dose group was started with 3 mg/kg, increased to 6 mg/kg after two weeks and to 8 mg/kg after two more weeks, and maintained at 8 mg/kg thereafter. After eight weeks of administration, an ultrasonograph (Aplio 300, Toshiba Medical Systems Corporation) was used to measure the left ventricular ejection fraction, and Catheter-tipped micromanometer (Model SPR-320, Millar Inc.) was inserted into the left ventricle via the left carotid artery to measure the left ventricular end-diastolic pressure. For statistical analysis, Aspin-Welch t test was conducted between the sham-operated vehicle-administered group and the vehicle-administered group of post-myocardial infarction heart failure rats. Steel’s multiple comparison test was conducted for the Compound 1 group to the vehicle group of post-myocardial infarction heart failure rats. The significance level was two-sided 5%. Form the results, it was confirmed that the vehicle-administered group of post-myocardial infarction heart failure rats developed HFrEF because the left ventricular ejection fraction was decreased and the left ventricular end-diastolic pressure was increased, compared with the sham-operated vehicle-administered group.

Consider `C[C@H]1C(=O)NC[C@@H]1C(=O)Nc1cc(-c2cc(F)cc(OC(C)(C)C)c2)n(C(F)(F)F)n1` [Compound 1], for which the “EDPVRβ (end-diastolic pressure-volume relationship β)” value was “lower value” in data set [1] (3 mg/kg group, oral once daily, six weeks, vs vehicle, FIG. 4); “significantly reduced” in data set [1] (Ascending Dose group (3, then 6, then 8 mg/kg), oral once daily, six weeks, vs vehicle, p < 0.05, FIG. 4); “reduced” in data set [1] (dose groups not distinguished, oral once daily, six weeks). In addition, the “left ventricular end-diastolic pressure” value in data set [1] (hypertensive heart failure (Dahl) rats, oral once daily, six weeks, vs vehicle, p < 0.05 and p < 0.01, FIG. 3) was “significantly reduced”; in data set [2] (post-myocardial infarction heart failure rats, oral once daily, eight weeks, in comparison with the vehicle, FIG. 1), “lower value; also recorded: suppressed”. Further, the systolic blood pressure entry in data set [1] (hypertensive heart failure rats, after five weeks of administration, FIG. 6) was “had no effect”. Further, the urine volume entry in data set [1] (hypertensive heart failure rats, in comparison with the vehicle, FIG. 7) is “did not affect; also recorded: had no effect”. The HFpEF improving effect entry in data set [1] (hypertensive heart failure rats, overall conclusion) is “has an HFpEF improving effect”. For the same compound, the “left ventricular ejection fraction” value is “higher value” in data set [2] (3 mg/kg group, oral once daily, eight weeks, vs vehicle, FIG. 2); “significantly increased” in data set [2] (Ascending Dose group (3, then 6, then 8 mg/kg), oral once daily, eight weeks, vs vehicle, p < 0.05, FIG. 2); “increased” in data set [2] (dose groups not distinguished (3 mg/kg or Ascending Dose), oral once daily, eight weeks). Besides, the HFrEF improving effect result in data set [2] (post-myocardial infarction heart failure rats, overall conclusion) was “improved HFrEF; also recorded: has an HFrEF improving effect”.
